Patent US7838288B2, “Modulators of odorant receptors” (Duke University, priority 2004, dated 2010)

Legend:
olfr62 = assay: CRE-luciferase reporter gene assay, olfr62; format: cell-based, mouse; settings: Hana3A cells
Procedure: Four ORs (S6/79, S18, S46 and S50) previously assayed using other techniques (see, e.g., Malnic, B., et al. (1999) Cell 96, 713-723; herein incorporated by reference in its entirety) were tested against an assay panel of aliphatic alcohols, aldehydes and acids and some other odorants. Additionally, five “orphan” class I ORs (MOR23-1, MOR31-4, MOR31-6, MOR32-5 and MOR32-11) whose cognate ligands were unknown were tested. At a suprathreshold concentration of 100 uM, all these ORs were odorant selective, responding to only a small subset of the odorants tested (see FIG. 11A). This specificity was retained at lower, more physiologically relevant concentrations. Many of these ORs responded to odorants present in micromolar concentrations. The cell-surface expression of these ORs by living-cell immunofluorescence were evaluated. Some ORs (S18, MOR31-4, MOR31-6 and MOR32-5) were strongly expressed while other ORs (S6, S50, MOR23-1, MOR32-11) were weakly expressed (see FIG. 12). The present invention is not limited to a particular mechanism. Indeed, an understanding of the mechanism is not necessary to practice the present invention. […] Finally, two additional orphan class II ORs, MOR203-1 and olfr62, were tested against a panel of 139 odorants. […] Olfr62 responded to coumarine and piperonal (see FIG. 11C). […] When parental 293T cells for these ORs were used in this luciferase assay, little or no response to the odorants was observed. The present invention is not limited to a particular mechanism. Indeed, an understanding of the mechanism is not necessary to practice the present invention.
Dual-Glo system (Promega) for luciferase assay was used. CRE-Luciferase (Stratagene) was used to measure the receptor activities. Renilla luciferase driven by constitutively active SV40 promoter (pRL-SV40: Promega) was used as an internal control. Cells were plated on poly-D-lysine coated 96 well plates (BIOCOAT, Beckton Dickinson). After 8 hours (for experiments shown in FIGS. 8B and 8C) or 12 hours (for experiments shown in FIG. 8D and FIG. 11) after transfection, the medium was replaced with CD293 chemically defined medium (Invitrogen) and the plates were incubated for one hour at 37 degrees C. The medium was replaced with 50 ul of odorant solutions dissolved in CD293 and incubated for 10 hours (for experiments shown in FIGS. 8B and 8C) or 4 hours (for experiments shown in FIG. 8D and FIG. 11) at 37 degrees C. The manufacture's protocol for measuring luciferase and Renilla luciferase activities was followed. Luminescence was measured using Wallac Victor 1420 (Perkin-Elmer). Normalized luciferase activity was calculated as [Luc (N)-Luc (0)]/RL (N), where Luc (N)=Luminescent count of a certain well, Luc (0)=Luminescent count without odorant for each OR, and RL (N)=Luminescent count of Renilla Luciferase of each well. For cAMP assays, cells were plated onto 24-well plate. […]. Prism software (Graphpad) was used for data analysis. […]

[1] = system: Eight other ORs located near the IVA locus; assay: Luciferase assay, other ORs near the IVA locus; format: cell-based
Description: In experiments conducted during the course of the present invention, not only three class I ORs (S46, MOR23-1, MOR31-4) but also MOR203-1, a class II OR, responded to nonanoic acid. The present invention is not limited to a particular mechanism. Indeed, an understanding of the mechanism is not necessary to practice the present invention. […] Olfr62 is one of the closely related ORs located near or at the IVA locus, implicated in isovaleric acid sensation (see, e.g., Griff, I. C., and Reed, R. R. (1995) Cell 83, 407-414; Zhang, X., and Firestein, S. (2002) Nat Neurosci 5, 124-133; each herein incorporated by reference in their entireties). […] The present invention is not limited to a particular mechanism. Indeed, an understanding of the mechanism is not necessary to practice the present invention.
Dual-Glo system (Promega) for luciferase assay was used. CRE-Luciferase (Stratagene) was used to measure the receptor activities. Renilla luciferase driven by constitutively active SV40 promoter (pRL-SV40: Promega) was used as an internal control. […] Luminescence was measured using Wallac Victor 1420 (Perkin-Elmer). Normalized luciferase activity was calculated as [Luc (N)-Luc (0)]/RL (N), where Luc (N)=Luminescent count of a certain well, Luc (0)=Luminescent count without odorant for each OR, and RL (N)=Luminescent count of Renilla Luciferase of each well. […]

CC(C)CC(=O)O [isovaleric acid, Isovaleric acid]
response of olfr62 to odorant (luciferase) (olfr62): did not respond
response of eight other ORs near the IVA locus to odorant [1]: none of them responded
